# Experimental data from patent US20090042957A1, “Substituted Oxyarenes” (Bayer CropScience AG, priority 2004, published 2009).
# What was measured:
# Spodoptera frugiperda = Spodoptera frugiperda test (spray treatment); type: in vivo; details: for Kill rate in % after 7d: active compound concentration 500 g/ha, sprayed corn leaf disks (Zea mays), caterpillars
# Method: Spodoptera frugiperda Test (Spray Treatment) [table] To produce a suitable preparation of active compound, 1 part by weight of active compound is mixed with the stated amounts of solvents and emulsifier, and the concentrate is diluted with emulsifier-containing water to the desired concentration. Disks of corn leaves (Zea mays) are sprayed with an active compound preparation of the desired concentration and, after drying, populated with caterpillars of the armyworm (Spodoptera frugiperda). After the desired period of time, the effect in % is determined. 100% means that all caterpillars have been killed; 0% means that none of the caterpillars have been killed.
# log P (pH 2.3) = type: physicochemical
# Tetranychus urticae = test: Tetranychus test; OP-resistant (TETRUR spray treatment); type: in vivo; details: active compound concentration 100 g/ha, sprayed bean leaf disks (Phaseolus vulgaris), all stages of spider mite
# Method: Tetranychus Test; OP-Resistant (TETRUR Spray Treatment)
# To produce a suitable preparation of active compound, 1 part by weight of active compound is mixed with the stated amounts of solvents and emulsifier, and the concentrate is diluted with emulsifier-containing water to the desired concentration.
# Disks of bean leaves (Phaseolus vulgaris) which are infested by all stages of the greenhouse red spider mite (Tetranychus urticae) are sprayed with an active compound preparation of the desired concentration.
# After the desired period of time, the effect in % is determined. 100% means that all spider mites have been killed; 0% means that none of the spider mites have been killed.
Structure (SMILES),Kill rate in % after 7d (Spodoptera frugiperda) [%],logP (log P (pH 2.3)),further results
COc1c(Cl)cc(OCC=C(Cl)Cl)cc1C1=NOC(CCCOc2ccc(N3CCCC3=O)cc2)C1 (stereo not shown),100,,
"COc1c(Cl)cc(OCC=C(Cl)Cl)cc1C1=NC(CO)CO1 (stereo not shown) [{2-[3-chloro-5-(3,3-dichloroallyloxy)-2-methoxyphenyl]-4,5-dihydrooxazol-4-yl}methanol]",,2.05,
CCn1nnc(-c2ccc(OCCCC3CC(c4cc(OCC=C(Cl)Cl)cc(Cl)c4OC)=NO3)cc2)n1 (stereo not shown),100,,
"COc1c(Cl)cc(OCC=C(Cl)Cl)cc1C(=O)NNC(=O)CCCOCc1ccccc1 [3-chloro-5-(3,3-dichloroallyloxy)-2-methoxybenzoic acid N′-(4-benzyloxybutyryl)hydrazide]",,3.79,
COc1c(Cl)cc(OCC=C(Cl)Cl)cc1C1=NOC(CCCOc2cccc3c2OC(C)(C)C3)C1 (stereo not shown) [drawing 44],100,,
"COc1c(Cl)cc(OCC=C(Cl)Cl)cc1-c1nnc(CCCOCc2ccccc2)s1 [2-(3-benzyloxypropyl)-5-[3-chloro-5-(3,3-dichloroallyloxy)-2-methoxyphenyl]-[1,3,4]thiadiazole]",,5.67,
CCn1nnc(-c2ccc(OCCCC3CC(c4cc(OCC=C(Cl)Cl)cc(Cl)c4OC)=NO3)cc2)n1 (racemic) [Example I-1],,,"activity in Spodoptera frugiperda test (Spodoptera frugiperda; spray treatment, result in words): good activity"
COc1c(Cl)cc(OCC=C(Cl)Cl)cc1C1=NOC(CCCOc2cccc3c2OC(C)(C)C3)C1 (stereo not shown) [drawing 46],,,Kill rate in % after 7d (Tetranychus urticae): 90%
COc1c(Cl)cc(OCC=C(Cl)Cl)cc1C1=NOC(CCCOc2ccc3c(c2)CCCC3=O)C1 (stereo not shown),100,,
CO/N=C/c1ccc(OCCCC2CC(c3cc(OCC=C(Cl)Cl)cc(Cl)c3OC)=NO2)cc1 (stereo not shown),100,,
